What was measured:
[1] = target: Ankyrin repeat and protein kinase domain-containing protein 1 (Homo sapiens) (UniProt Q8NFD2); settings: Compound concentration 1000.0 nM
[2] = target: RAF proto-oncogene serine/threonine-protein kinase (Homo sapiens) (UniProt P04049); settings: Compound concentration 1000.0 nM
[3] = target: Dual specificity protein kinase CLK4 (Homo sapiens) (UniProt Q9HAZ1); settings: Compound concentration 1000.0 nM
[4] = test system: Mast/stem cell growth factor receptor Kit (Homo sapiens), P10721 [V559D,V654A]; settings: Compound concentration 1000.0 nM
[5] = target: Wee1-like protein kinase (Homo sapiens) (UniProt P30291); settings: Compound concentration 1000.0 nM
[6] = target: Leucine-rich repeat serine/threonine-protein kinase 2 (Homo sapiens) (UniProt Q5S007); settings: Compound concentration 1000.0 nM
[7] = target: Serine/threonine-protein kinase Nek7 (Homo sapiens) (UniProt Q8TDX7); settings: Compound concentration 1000.0 nM
[8] = target: Serine/threonine-protein kinase TNNI3K (Homo sapiens) (UniProt Q59H18); settings: Compound concentration 1000.0 nM
[9] = target: Cyclin-dependent kinase 4 (Homo sapiens) (UniProt P11802); settings: Compound concentration 1000.0 nM
[10] = target: Macrophage colony-stimulating factor 1 receptor (Homo sapiens) (UniProt P07333); settings: Compound concentration 1000.0 nM
[11] = target: Calcium/calmodulin-dependent protein kinase type II subunit alpha (Homo sapiens) (UniProt Q9UQM7); settings: Compound concentration 1000.0 nM
[12] = target: Glycogen synthase kinase-3 beta (Homo sapiens) (UniProt P49841); settings: Compound concentration 1000.0 nM
[13] = target: Rhodopsin kinase GRK1 (Homo sapiens) (UniProt Q15835); settings: Compound concentration 1000.0 nM
[14] = target: Insulin receptor-related protein (Homo sapiens) (UniProt P14616); settings: Compound concentration 1000.0 nM
[15] = target: MAP/microtubule affinity-regulating kinase 3 (Homo sapiens) (UniProt P27448); settings: Compound concentration 1000.0 nM
[16] = target: SNF-related serine/threonine-protein kinase (Homo sapiens) (UniProt Q9NRH2); settings: Compound concentration 1000.0 nM
[17] = target: Ephrin type-A receptor 7 (Homo sapiens) (UniProt Q15375); settings: Compound concentration 1000.0 nM
[18] = target: Tyrosine-protein kinase Fgr (Homo sapiens) (UniProt P09769); settings: Compound concentration 1000.0 nM
[19] = target: Uncharacterized serine/threonine-protein kinase SBK3 (Homo sapiens) (UniProt P0C264); settings: Compound concentration 1000.0 nM
[20] = target: Mitotic checkpoint serine/threonine-protein kinase BUB1 (Homo sapiens) (UniProt O43683); settings: Compound concentration 1000.0 nM
[21] = target: Serine/threonine-protein kinase PknB (Mycobacterium tuberculosis) (UniProt P9WI81); settings: Compound concentration 1000.0 nM
[22] = target: Serine/threonine-protein kinase PAK 5 (Homo sapiens) (UniProt Q9P286); settings: Compound concentration 1000.0 nM
[23] = target: Hepatocyte growth factor receptor (Homo sapiens) (UniProt P08581); settings: Compound concentration 1000.0 nM
[24] = target: Cyclin-dependent kinase-like 5 (Homo sapiens) (UniProt O76039); settings: Compound concentration 1000.0 nM
[25] = target: Serine/threonine-protein kinase BRSK1 (Homo sapiens) (UniProt Q8TDC3); settings: Compound concentration 1000.0 nM
[26] = target: Mitogen-activated protein kinase 15 (Homo sapiens) (UniProt Q8TD08); settings: Compound concentration 1000.0 nM
[27] = target: Casein kinase I isoform gamma-3 (Homo sapiens) (UniProt Q9Y6M4); settings: Compound concentration 1000.0 nM
[28] = target: Mast/stem cell growth factor receptor Kit (Homo sapiens) (UniProt P10721); settings: Compound concentration 1000.0 nM
[29] = target: Mitogen-activated protein kinase kinase kinase 11 (Homo sapiens) (UniProt Q16584); settings: Compound concentration 1000.0 nM
[30] = target: 5-hydroxytryptamine receptor 1E (Homo sapiens) (UniProt P28566); settings: Compound concentration 10.0 uM
[31] = target: Casein kinase I isoform gamma-2 (Homo sapiens) (UniProt P78368); settings: Compound concentration 1000.0 nM
[32] = target: Alpha-1B adrenergic receptor (Homo sapiens) (UniProt P35368); settings: Compound concentration 10.0 uM
[33] = target: Dual specificity mitogen-activated protein kinase kinase 4 (Homo sapiens) (UniProt P45985); settings: Compound concentration 1000.0 nM
[34] = target: Cyclin-dependent kinase 16 (Homo sapiens) (UniProt Q00536); settings: Compound concentration 1000.0 nM
[35] = test system: Hepatocyte growth factor receptor (Homo sapiens), P08581 [Y1235D]; settings: Compound concentration 1000.0 nM
[36] = target: Muscarinic acetylcholine receptor M2 (Homo sapiens) (UniProt P08172); settings: Compound concentration 10.0 uM
[37] = target: Serine/threonine-protein kinase VRK2 (Homo sapiens) (UniProt Q86Y07); settings: Compound concentration 1000.0 nM
[38] = target: Calcium-dependent protein kinase 1 (Plasmodium falciparum) (UniProt P62344); settings: Compound concentration 1000.0 nM
[39] = target: Phosphatidylinositol 3-kinase catalytic subunit type 3 (Homo sapiens) (UniProt Q8NEB9); settings: Compound concentration 1000.0 nM
[40] = target: BMP-2-inducible protein kinase (Homo sapiens) (UniProt Q9NSY1); settings: Compound concentration 1000.0 nM
[41] = target: Cyclin-dependent kinase 11A (Homo sapiens) (UniProt Q9UQ88); settings: Compound concentration 1000.0 nM
[42] = target: Non-receptor tyrosine-protein kinase TYK2 (Homo sapiens) (UniProt P29597); settings: Compound concentration 1000.0 nM
[43] = target: Serine/threonine-protein kinase RIO3 (Homo sapiens) (UniProt O14730); settings: Compound concentration 1000.0 nM
[44] = target: 5-hydroxytryptamine receptor 2C (Homo sapiens) (UniProt P28335); settings: Compound concentration 10.0 uM
[45] = target: Cyclin-dependent kinase-like 1 (Homo sapiens) (UniProt Q00532); settings: Compound concentration 1000.0 nM

Chain of Ankyrin repeat and protein kinase domain-containing protein 1 (Homo sapiens) (Q8NFD2 whole entry, the tested form may be a part): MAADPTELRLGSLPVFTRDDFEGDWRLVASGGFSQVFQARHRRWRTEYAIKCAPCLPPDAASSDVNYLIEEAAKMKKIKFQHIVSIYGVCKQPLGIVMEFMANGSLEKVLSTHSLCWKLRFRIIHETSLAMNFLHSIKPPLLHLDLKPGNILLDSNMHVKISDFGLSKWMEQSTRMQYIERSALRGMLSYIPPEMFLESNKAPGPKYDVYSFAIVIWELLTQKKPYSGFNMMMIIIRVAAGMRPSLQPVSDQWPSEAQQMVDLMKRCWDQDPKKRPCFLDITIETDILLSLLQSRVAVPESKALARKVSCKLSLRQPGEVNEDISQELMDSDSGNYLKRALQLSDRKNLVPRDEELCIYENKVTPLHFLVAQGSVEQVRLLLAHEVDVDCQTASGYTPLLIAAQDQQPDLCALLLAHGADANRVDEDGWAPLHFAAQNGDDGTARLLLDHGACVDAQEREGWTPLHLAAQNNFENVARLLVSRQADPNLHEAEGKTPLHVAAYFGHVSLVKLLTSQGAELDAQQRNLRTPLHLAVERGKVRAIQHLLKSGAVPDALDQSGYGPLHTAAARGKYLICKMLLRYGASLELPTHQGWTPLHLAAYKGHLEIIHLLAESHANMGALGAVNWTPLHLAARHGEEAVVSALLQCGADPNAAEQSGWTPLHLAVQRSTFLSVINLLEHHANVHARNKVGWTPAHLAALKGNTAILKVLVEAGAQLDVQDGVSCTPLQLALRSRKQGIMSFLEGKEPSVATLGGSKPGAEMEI
Chain of SNF-related serine/threonine-protein kinase (Homo sapiens) (Q9NRH2 whole entry): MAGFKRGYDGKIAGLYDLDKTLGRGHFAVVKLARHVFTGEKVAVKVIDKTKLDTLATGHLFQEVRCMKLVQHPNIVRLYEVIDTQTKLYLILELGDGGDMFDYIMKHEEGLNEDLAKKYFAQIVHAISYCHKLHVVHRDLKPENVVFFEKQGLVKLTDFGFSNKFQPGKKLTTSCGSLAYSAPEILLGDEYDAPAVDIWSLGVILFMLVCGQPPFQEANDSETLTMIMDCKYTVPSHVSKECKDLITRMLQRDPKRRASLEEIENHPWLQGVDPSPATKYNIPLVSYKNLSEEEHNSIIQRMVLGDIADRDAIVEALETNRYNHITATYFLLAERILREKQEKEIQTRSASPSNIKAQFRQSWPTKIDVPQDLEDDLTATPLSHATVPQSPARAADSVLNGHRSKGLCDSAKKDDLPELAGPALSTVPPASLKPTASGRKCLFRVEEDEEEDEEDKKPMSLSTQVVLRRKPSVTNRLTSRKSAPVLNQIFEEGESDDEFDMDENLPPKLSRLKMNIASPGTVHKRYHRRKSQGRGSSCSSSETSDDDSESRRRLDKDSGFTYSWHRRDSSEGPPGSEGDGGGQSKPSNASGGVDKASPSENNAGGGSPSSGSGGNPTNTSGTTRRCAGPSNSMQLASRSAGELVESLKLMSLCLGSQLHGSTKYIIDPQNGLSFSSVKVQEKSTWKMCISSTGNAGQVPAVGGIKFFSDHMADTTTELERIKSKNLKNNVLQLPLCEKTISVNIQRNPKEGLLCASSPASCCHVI
Chain of Rhodopsin kinase GRK1 (Homo sapiens) (Q15835 whole entry): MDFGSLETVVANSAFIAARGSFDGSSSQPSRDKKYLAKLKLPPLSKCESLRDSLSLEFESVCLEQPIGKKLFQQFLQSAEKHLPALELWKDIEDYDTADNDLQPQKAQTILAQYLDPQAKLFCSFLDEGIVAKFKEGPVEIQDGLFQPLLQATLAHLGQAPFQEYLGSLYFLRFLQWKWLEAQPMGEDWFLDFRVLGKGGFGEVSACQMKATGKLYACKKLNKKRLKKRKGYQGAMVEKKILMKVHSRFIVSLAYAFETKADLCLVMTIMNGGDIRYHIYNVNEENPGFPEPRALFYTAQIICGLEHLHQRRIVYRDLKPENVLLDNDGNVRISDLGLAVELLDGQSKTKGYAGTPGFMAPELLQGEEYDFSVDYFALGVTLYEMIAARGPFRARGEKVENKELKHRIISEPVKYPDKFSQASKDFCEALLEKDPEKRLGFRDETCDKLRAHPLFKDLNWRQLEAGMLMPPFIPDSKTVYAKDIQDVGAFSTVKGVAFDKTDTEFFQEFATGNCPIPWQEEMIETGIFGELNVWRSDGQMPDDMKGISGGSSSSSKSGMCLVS
Chain of BMP-2-inducible protein kinase (Homo sapiens) (Q9NSY1 whole entry, looked up): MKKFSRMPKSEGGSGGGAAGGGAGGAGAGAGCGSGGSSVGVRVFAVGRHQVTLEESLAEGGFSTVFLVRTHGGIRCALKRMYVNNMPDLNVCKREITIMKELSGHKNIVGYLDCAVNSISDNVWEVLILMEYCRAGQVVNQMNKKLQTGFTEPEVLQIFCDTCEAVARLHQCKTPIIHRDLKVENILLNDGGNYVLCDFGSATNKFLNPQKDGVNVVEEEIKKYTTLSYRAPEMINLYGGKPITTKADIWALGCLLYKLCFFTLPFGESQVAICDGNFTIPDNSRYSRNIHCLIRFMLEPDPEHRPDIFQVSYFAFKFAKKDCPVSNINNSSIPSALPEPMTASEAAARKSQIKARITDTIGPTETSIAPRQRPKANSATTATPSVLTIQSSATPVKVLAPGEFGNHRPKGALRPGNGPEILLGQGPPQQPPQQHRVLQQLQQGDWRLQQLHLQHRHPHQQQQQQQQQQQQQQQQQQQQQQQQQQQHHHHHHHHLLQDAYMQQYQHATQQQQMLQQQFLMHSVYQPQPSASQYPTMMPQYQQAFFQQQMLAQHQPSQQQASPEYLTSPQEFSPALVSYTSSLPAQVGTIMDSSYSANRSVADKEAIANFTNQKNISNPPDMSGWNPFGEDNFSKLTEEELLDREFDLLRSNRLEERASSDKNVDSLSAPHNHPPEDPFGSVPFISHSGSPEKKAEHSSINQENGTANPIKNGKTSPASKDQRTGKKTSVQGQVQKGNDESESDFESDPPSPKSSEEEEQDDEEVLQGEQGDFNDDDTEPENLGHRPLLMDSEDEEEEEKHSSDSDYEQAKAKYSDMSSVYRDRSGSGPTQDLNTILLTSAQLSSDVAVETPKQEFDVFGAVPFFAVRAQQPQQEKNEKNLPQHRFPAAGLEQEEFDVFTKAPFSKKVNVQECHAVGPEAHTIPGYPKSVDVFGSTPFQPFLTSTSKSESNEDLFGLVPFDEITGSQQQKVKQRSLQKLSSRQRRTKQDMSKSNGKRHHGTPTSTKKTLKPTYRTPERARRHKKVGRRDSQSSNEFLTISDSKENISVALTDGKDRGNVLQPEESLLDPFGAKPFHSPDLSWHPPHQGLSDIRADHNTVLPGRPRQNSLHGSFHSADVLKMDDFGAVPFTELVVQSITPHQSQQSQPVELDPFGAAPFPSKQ
Chain of Mast/stem cell growth factor receptor Kit (Homo sapiens), P10721 [V559D,V654A] (P10721 whole entry V559D/V654A): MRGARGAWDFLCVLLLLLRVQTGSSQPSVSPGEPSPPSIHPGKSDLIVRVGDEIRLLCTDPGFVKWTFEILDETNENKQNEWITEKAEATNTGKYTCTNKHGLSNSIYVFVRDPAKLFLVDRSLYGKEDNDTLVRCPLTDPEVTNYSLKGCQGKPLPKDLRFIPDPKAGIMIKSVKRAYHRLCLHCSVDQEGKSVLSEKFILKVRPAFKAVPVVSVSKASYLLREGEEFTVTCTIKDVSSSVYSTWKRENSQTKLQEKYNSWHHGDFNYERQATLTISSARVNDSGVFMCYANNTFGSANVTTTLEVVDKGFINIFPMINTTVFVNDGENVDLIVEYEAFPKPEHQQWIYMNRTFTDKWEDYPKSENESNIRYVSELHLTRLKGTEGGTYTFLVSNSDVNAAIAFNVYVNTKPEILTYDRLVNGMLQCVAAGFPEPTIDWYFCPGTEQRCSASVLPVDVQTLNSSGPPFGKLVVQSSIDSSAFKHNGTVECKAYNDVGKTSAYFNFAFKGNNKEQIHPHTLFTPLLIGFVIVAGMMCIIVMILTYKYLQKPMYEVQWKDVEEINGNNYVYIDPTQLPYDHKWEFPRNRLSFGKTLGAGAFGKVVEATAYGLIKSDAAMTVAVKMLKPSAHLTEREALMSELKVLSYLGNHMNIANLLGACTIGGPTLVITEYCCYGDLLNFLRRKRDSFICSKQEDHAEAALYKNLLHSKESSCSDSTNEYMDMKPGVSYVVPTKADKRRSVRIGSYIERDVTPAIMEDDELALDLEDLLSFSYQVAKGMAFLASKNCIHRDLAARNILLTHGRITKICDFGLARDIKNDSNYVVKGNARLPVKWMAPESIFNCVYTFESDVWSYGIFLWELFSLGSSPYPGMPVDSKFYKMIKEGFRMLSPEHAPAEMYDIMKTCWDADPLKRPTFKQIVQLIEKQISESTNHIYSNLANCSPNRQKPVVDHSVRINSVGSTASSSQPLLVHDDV
Chain of Calcium-dependent protein kinase 1 (Plasmodium falciparum) (P62344 2-524 limits assumed): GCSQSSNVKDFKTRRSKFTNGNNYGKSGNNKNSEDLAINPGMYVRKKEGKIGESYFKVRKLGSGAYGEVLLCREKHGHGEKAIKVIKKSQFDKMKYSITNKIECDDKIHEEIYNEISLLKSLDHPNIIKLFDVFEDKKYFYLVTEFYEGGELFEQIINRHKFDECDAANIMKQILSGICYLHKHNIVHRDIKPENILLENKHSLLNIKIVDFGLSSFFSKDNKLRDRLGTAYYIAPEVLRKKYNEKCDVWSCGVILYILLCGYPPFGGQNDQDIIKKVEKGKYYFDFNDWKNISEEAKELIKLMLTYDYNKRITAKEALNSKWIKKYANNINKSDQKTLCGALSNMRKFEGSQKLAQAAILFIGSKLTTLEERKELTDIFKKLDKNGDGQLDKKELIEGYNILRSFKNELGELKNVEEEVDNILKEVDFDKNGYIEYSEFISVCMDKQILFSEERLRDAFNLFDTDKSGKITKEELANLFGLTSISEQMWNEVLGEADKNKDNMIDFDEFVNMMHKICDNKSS
Chain of Serine/threonine-protein kinase Nek7 (Homo sapiens) (Q8TDX7 whole entry, looked up): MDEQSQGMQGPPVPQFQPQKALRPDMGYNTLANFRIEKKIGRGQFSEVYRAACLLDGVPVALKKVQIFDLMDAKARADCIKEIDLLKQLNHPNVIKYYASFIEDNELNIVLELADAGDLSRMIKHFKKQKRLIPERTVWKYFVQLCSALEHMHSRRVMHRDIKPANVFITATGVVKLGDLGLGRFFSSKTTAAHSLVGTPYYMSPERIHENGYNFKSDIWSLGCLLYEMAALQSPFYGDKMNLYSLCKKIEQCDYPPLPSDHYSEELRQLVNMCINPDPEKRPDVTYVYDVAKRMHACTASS

Cc1c(NC(=O)c2cc(C(N)=O)nc3cc(F)ccc23)c(C(F)(F)F)nn1Cc1ccc(C(C)(C)C)cc1 [BAY-588]
inactive: residual activity [1] 100% | residual activity [2] 88% | residual activity [3] 100% | residual activity [4] 98% | residual activity [5] 100% | residual activity [6] 100% | residual activity [7] 100% | residual activity [8] 81% | residual activity [9] 100% | residual activity [10] 100% | residual activity [11] 89% | residual activity [12] 100% | residual activity [13] 83% | residual activity [14] 96% | residual activity [15] 100% | residual activity [16] 93% | residual activity [17] 100% | residual activity [18] 96% | residual activity [19] 100% | residual activity [20] 100% | residual activity [21] 95% | residual activity [22] 100% | residual activity [23] 100% | residual activity [24] 100% | residual activity [25] 100% | residual activity [26] 56% | residual activity [27] 100% | residual activity [28] 99% | residual activity [29] 100% | inhibition [30] 7.98% | residual activity [31] 100% | inhibition [32] -5.98% | residual activity [33] 100% | residual activity [34] 100% | residual activity [35] 84% | inhibition [36] 15.3% | residual activity [37] 95% | residual activity [38] 100% | residual activity [39] 100% | residual activity [40] 100% | residual activity [41] 94% | residual activity [42] 100% | residual activity [43] 97% | inhibition [44] -2.42% | residual activity [45] 100%

Cc1c(NC(=O)c2cc(C(N)=O)nc3cc(F)ccc23)c(C(F)(F)F)nn1Cc1ccc(C#N)cc1 [BAY-876]
inactive: residual activity [1] 80% | residual activity [2] 86% | residual activity [3] 87% | residual activity [4] 58% | residual activity [5] 94% | residual activity [6] 83% | residual activity [7] 99% | residual activity [8] 100% | residual activity [9] 87% | residual activity [10] 100% | residual activity [11] 100% | residual activity [12] 88% | residual activity [13] 87% | residual activity [14] 92% | residual activity [15] 100% | residual activity [16] 90% | residual activity [17] 86% | residual activity [18] 93% | residual activity [19] 100% | residual activity [20] 88% | residual activity [21] 78% | residual activity [22] 92% | residual activity [23] 100% | residual activity [24] 77% | residual activity [25] 100% | residual activity [26] 100% | residual activity [27] 100% | residual activity [28] 95% | residual activity [29] 100% | inhibition [30] 4% | residual activity [31] 88% | inhibition [32] -8.82% | residual activity [33] 86% | residual activity [34] 100% | residual activity [35] 100% | inhibition [36] 25.8% | residual activity [37] 72% | residual activity [38] 92% | residual activity [39] 99% | residual activity [40] 96% | residual activity [41] 100% | residual activity [42] 77% | residual activity [43] 75% | inhibition [44] 6.9% | residual activity [45] 82%

— ChEMBL document CHEMBL4507267 (2021)
